For orientation: Km means the concentration of substrate that gives half-maximal velocity.

Like-named read-outs stand apart in the source and are kept apart here.

In this experiment the target is KPC-2 (UNIPROT Q9F663) from Klebsiella pneumoniae, SEQ ID NO. 32 (Klebsiella pneumoniae, UniProt Q9F663). To be noted: E. coli cells. The procedure:
An in vivo assay was conducted to test the inhibitory capacity of four β-lactamases from three resistant microorganisms: BlaMab from Mycobacterium abscessus, KPC-2 (UNIPROT Q9F663) and OXA-48 (UNIPROT Q6XEC0) from Klebsiella pneumoniae, and VIM-2 (UNIPROT B8QIQ9) from Pseudomonas aeruginosa. The assay utilized BL21(DE3) strain cells of Escherichia coli transformed with the expression vector pET26b(+) along with the gene sequence of each β-lactamase. Cells successfully transformed with the vector and insert were selected using a Kanamycin resistance gene (KanR) present in the vector. The presence and orientation of the insert were confirmed using PCR and sequencing. Additionally, the pET26b(+) vector has an IPTG-inducible promoter to activate the translation of the corresponding β-lactamase. The plasmid also includes a pelB export signal directing the β-lactamase to the periplasmic space of the bacteria for the inhibition assay with Ndis (nanobodies, single-domain antibodies).
To obtain Table 4 with the enzymatic constants (Km, Vmax, Kmi, and Ki) of BlaMab-2, KPC-2, VIM-2, and OXA-48 with B2 and B5, a quantitative assay was performed using a cephalosporin analog: nitrocefin. This compound changes color from yellow to red when hydrolyzed by β-lactamase, which can be quantified by measuring absorbance at 490nm. This method was used to study the membrane permeability of the antibodies in the bacteria as well as the inhibitory effect of B2 and B5 on the activity of BlaMab, KPC-2, OXA48, and VIM-2.

Sequence of KPC-2 (UNIPROT Q9F663) from Klebsiella pneumoniae, SEQ ID NO. 32 (Q9F663 25-293 limits assumed): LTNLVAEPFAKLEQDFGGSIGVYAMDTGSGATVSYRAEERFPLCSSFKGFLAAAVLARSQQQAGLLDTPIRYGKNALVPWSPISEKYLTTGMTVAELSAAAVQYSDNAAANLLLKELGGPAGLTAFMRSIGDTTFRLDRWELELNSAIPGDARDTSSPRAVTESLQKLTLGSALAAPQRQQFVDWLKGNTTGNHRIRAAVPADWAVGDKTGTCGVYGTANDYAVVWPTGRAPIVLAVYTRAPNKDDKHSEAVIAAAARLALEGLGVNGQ

`O=C(Cc1cccs1)N[C@@H]1C(=O)N2C(C(=O)O)=C(/C=C/c3ccc([N+](=O)[O-])cc3[N+](=O)[O-])CS[C@H]12` [nitrocefin]: the Km (read-out: Km(µM) B2, with antibody B2) was found to be 121 µM; the Km (read-out: Km(µM) B5, with antibody B5) came out at 2.19 µM; the Km (read-out: Km(µM) Control without antibody, control without antibody (controls of the B2 and B5 runs)) turned out to be 1.36 µM.

The values above are taken from patent EP4729537A1, “B-LACTAMASE-INHIBITING ANTIBODY AND USE THEREOF IN THE TREATMENT AND/OR PREVENTION OF INFECTIONS CAUSED BY B-LACTAMASE-PRODUCING BACTERIA” (priority 2023, dated 2024).
